The values that follow come from patent US7141592B2, “Substituted oxadiazolidinediones” (Wyeth, priority 2003, dated 2006).

This assay deals with T1, recombinant human plasminogen activator inhibitor-1 (PAI-1) (Homo sapiens, UniProt P05121).
T1 construct: purchased Molecular Innovations, Royal Oak, Mich
T1 sequence (P05121 24-402): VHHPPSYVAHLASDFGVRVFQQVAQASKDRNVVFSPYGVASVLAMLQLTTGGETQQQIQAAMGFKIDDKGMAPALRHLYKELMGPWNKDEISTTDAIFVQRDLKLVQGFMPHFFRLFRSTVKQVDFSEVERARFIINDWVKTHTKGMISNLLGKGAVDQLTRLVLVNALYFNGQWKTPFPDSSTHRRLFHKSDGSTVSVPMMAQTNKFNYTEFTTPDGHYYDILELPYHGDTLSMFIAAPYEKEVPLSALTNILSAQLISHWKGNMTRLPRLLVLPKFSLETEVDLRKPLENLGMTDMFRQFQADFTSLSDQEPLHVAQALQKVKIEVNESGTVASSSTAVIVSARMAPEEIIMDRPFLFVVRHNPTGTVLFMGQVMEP
As to the kind of experiment: Primary screen for the PAI-1 inhibition (chromogenic tPA activity, Spectrozyme-tPA). Format: biochemical. To be noted: compound at 100 μM. On the procedure:
Test compounds are dissolved in DMSO at a final concentration of 10 mM, then diluted 100× in physiologic buffer. The inhibitory assay is initiated by the addition of the substituted oxadiazolidinedione (1–100 μM final concentration, maximun DMSO concentration of 0.2%) in a pH 6.6 buffer containing 140 nM recombinant human plasminogen activator inhibitor-1 (PAI-1; Molecular Innovations, Royal Oak, Mich.). Following a 1 hour incubation at room temperature, 70 nM of recombinant human tissue plasminogen activator (tPA) is added, and the combination of the substituted oxadiazolidinedione, PAI-1 and tPA is incubated for an additional 30 minutes. Following the second incubation, Spectrozyme-tPA (American Diagnostica, Greenwich, Conn.), a chromogenic substrate for tPA, is added and absorbance read at 405 nm at 0 and 60 minutes. Relative PAI-1 inhibition is equal to the residual tPA activity in the presence of the test compound and PAI-1. Control treatments include the complete inhibition of tPA by PAI-1 at the molar ratio employed (2:1), and the absence of any effect of the substituted oxadiazolidinedione on tPA alone.
With `O=c1[nH]c(=O)n(Cc2cccc(-c3cccc(OCc4ccc(Cl)c(Cl)c4)c3)c2)o1` [Compound 43, 2-({3′-[(3,4-dichlorobenzyl)oxy]-1,1′-biphenyl-3-yl}methyl)-1,2,4-oxadiazolidine-3,5-dione], the inhibition at 100 µM was 100%.
On to “2-({4′-[(4-tert-butylbenzyl)oxy]-1,1′-biphenyl-3-yl}methyl)-1,2,4-oxadiazolidine-3,5-dione [Compound 48]”, for which the “% Inhibition @ 100 μM” value was found to be 23%.
Turning to `O=c1[nH]c(=O)n(Cc2cccc(OCc3cccc(Br)c3)c2OCc2cccc(Br)c2)o1` [Compound 84, 2-{2,3-bis[(3-bromobenzyl)oxy]benzyl}-1,2,4-oxadiazolidine-3,5-dione], the inhibition at 100 µM stood at 95%.
Take `Cc1ccc(COc2cccc(-c3cccc(Cn4oc(=O)[nH]c4=O)c3)c2)cc1` [Compound 45, 2-({3′-[(4-methylbenzyl)oxy]-1,1′-biphenyl-3-yl}methyl)-1,2,4-oxadiazolidine-3,5-dione]: the inhibition at 100 µM turned out to be 94%.
For the molecule `CC(C)(C)c1ccc(COc2cccc(-c3ccc(Cn4oc(=O)[nH]c4=O)cc3)c2)cc1` [Compound 53, 2-({3′-[(4-tert-butylbenzyl)oxy]-1,1′-biphenyl-4-yl}methyl)-1,2,4-oxadiazolidine-3,5-dione], the inhibition at 100 µM is 60%.
Still for that read-out and setting: then `CCn1cc(Cn2oc(=O)[nH]c2=O)c2cc(OCc3ccc(C(C)(C)C)cc3)ccc21` [Compound 3, 2-({5-[(4-tert-butylbenzyl)oxy]-1-ethyl-1H-indol-3-yl}methyl)-1,2,4-oxadiazolidine-3,5-dione], with 9%; and `C=CCn1cc(Cn2oc(=O)[nH]c2=O)c2cc(OCc3cccc(C(F)(F)F)c3)ccc21` [Compound 29, 2-[(1-allyl-5-{[3-(trifluoromethyl)benzyl]oxy}-1H-indol-3-yl)methyl]-1,2,4-oxadiazolidine-3,5-dione], with 79%.
On the same count and under the same terms, then `C=CCn1cc(Cn2oc(=O)[nH]c2=O)c2cc(OCc3ccc(C(F)(F)F)cc3)ccc21` [Compound 4, 2-[(1-allyl-5-{[4-(trifluoromethyl)benzyl]oxy}-1H-indol-3-yl)methyl]-1,2,4-oxadiazolidine-3,5-dione], with 96%.
`COc1cc(Cn2oc(=O)[nH]c2=O)cc(OCc2cccc(Br)c2)c1OCc1cccc(Br)c1` [Compound 79, 2-{3,4-bis[(3-bromobenzyl)oxy]-5-methoxybenzyl}-1,2,4-oxadiazolidine-3,5-dione]: the inhibition at 100 µM stood at 87%.
Regarding `C#CCn1cc(Cn2oc(=O)[nH]c2=O)c2cc(OCc3ccc(Cl)c(Cl)c3)ccc21` [Compound 18, 2-{[5-[(3,4-dichlorobenzyl)oxy]-1-(2-propynyl)-1H-indol-3-yl]methyl}-1,2,4-oxadiazolidine-3,5-dione], the inhibition at 100 µM was found to be 100%.
Still for that read-out and setting: then `CCn1cc(Cn2oc(=O)[nH]c2=O)c2cc(OCc3cc(C(F)(F)F)cc(C(F)(F)F)c3)ccc21` [Compound 6, 2-[(5-{[3,5-bis(trifluoromethyl)benzyl]oxy}-1-ethyl-1H-indol-3-yl)methyl]-1,2,4-oxadiazolidine-3,5-dione], with 28%; and `O=c1[nH]c(=O)n(Cc2ccc(-c3cccc(OCc4ccc(Br)cc4)c3)cc2)o1` [Compound 54, 2-({3′-[(4-bromobenzyl)oxy]-1,1′-biphenyl-4-yl}methyl)-1,2,4-oxadiazolidine-3,5-dione], with 10%.
As to `O=c1[nH]c(=O)n(Cc2ccc(OCc3ccccc3Br)c(OCc3ccccc3Br)c2)o1` [Compound 90, 2-{3,4-bis[(2-bromobenzyl)oxy]benzyl}-1,2,4-oxadiazolidine-3,5-dione], the inhibition at 100 µM stood at 94%.
The same measure, in the same setting: the same measure for `C#CCn1cc(Cn2oc(=O)[nH]c2=O)c2cc(OCc3cccc(Br)c3)ccc21` [Compound 26, 2-{[5-[(3-bromobenzyl)oxy]-1-(2-propynyl)-1H-indol-3-yl]methyl}-1,2,4-oxadiazolidine-3,5-dione]: 100%.

What is called inhibition is the relative decrease from the control value, in per cent.
